These results are taken from patent US6664274B1, “Piperidine derivatives as serotonine reuptake inhibitors” (Eli Lilly and Company, priority 1999, dated 2003).

Structures can show the parent of a compound that is named as a salt.

Regarding `OC(C1CCCCC1)C(CCN1CC=C(c2cccc3sccc23)CC1)c1ccccn1` (stereo not shown) (as salt: oxalate), the melting point lay within 80 to 85 °C.
